From patent US10555930B2, “Complex of a glucopyranosyl derivative and preparation method and use thereof” (SUNSHINE LAKE PHARMA CO., LTD., priority 2015, dated 2020)

How the values were obtained:
[1] = Pharmacokinetic evaluation in beagles after intravenous injection and oral administration; assay type: in vivo; conditions: 0.1 mg/kg
Procedure: The test sample (Complex (IA) prepared from example 2 of the invention) was dissolved in normal saline (100%) to get a solution at a concentration of 0.04 mg/mL, which was administered by i.v; the same test sample was suspended in 0.5% HPMC to get a suspension at a concentration of 0.02 mg/mL, 0.10 mg/mL, 0.50 mg/mL, 2.00 mg/mL, which was administered by gavage. The beagles were grouped randomly, each dosage group had 6 beagles, half male and half female, which were fasted for 12 h before administered, free drank. After administration of 4 h, beagles uniform ate. The single oral administration group was grouped to 4 dosage groups, which were administered the test sample suspension by gavage respectively, the dosage respectively was 0.1, 0.5, 2.5 and 10 mg/kg, and the volume of the suspension was 5 mL/kg. The blood samples were collected before administration of 0 h, and after administration of 0.25, 0.5, 1.0, 2.0, 4.0, 6.0, 8.0, 10, 12 and 48 h from lateral small saphenous vein or medial head vein of forelimb, which were placed into EDTA-K2 anticoagulative tubes. The i.v group had one dosage group, the test sample solution was administered by i.v at a dosage of 0.1 mg/kg, and the volume of the solution was 2.5 mL/kg. The blood samples were collected before administration of 0 h, and after administration of 5 min, 15 min, 0.5, 1.0, 2.0, 4.0, 6.0, 8.0, 10, 12 and 48 h from lateral small saphenous vein or medial head vein of forelimb, which were placed into EDTA-K2 anticoagulative tubes. The blood samples were centrifuged for 2 min at 11000 rpm, the plasma samples were isolated and stored at −70° C.±10° C.
The concentration of the test sample in plasma was analyzed by the LC-MS/MS method, the pharmacokinetic parameters were calculaged by the […] model method using WinNonlin 6.3 software, and drug-time curve was plotted.
The LC/MS/MS system comprised Agilent 1200 series vacuum […], binary pumps, well-plate autosampler, thermostatted column compartment, the API 4000 QTRAP Triple Quadrupole Mass Spectrometer with an electrosprayionization (ESI) source. Quantitative analysis was carried out using MRM mode.
A Waters Xbridge-C18, 2.1×30 mm, […] column was used for the analysis, 5 μL of the sample was injected. Analysis condition: The mobile phase was […] ammonium formate+0.1% formic acid in water (A) and 2 mM ammonium formate+0.1% formic acidin methanol (B). The flow rate was 0.4 mL/min And the gradient of Mobile phase was in the Table E.

[2] = target: T1, human SGLT-2 (Homo sapiens, UniProt P31639); test: Inhibitory activity against SGLT-2, [14C]-AMG uptake in CHO cells; assay type: cell-based
T1 construct: expressed in transfected cells; host or cells: CHO cells (Flp-in CHO)
T1 sequence (P31639 1-672): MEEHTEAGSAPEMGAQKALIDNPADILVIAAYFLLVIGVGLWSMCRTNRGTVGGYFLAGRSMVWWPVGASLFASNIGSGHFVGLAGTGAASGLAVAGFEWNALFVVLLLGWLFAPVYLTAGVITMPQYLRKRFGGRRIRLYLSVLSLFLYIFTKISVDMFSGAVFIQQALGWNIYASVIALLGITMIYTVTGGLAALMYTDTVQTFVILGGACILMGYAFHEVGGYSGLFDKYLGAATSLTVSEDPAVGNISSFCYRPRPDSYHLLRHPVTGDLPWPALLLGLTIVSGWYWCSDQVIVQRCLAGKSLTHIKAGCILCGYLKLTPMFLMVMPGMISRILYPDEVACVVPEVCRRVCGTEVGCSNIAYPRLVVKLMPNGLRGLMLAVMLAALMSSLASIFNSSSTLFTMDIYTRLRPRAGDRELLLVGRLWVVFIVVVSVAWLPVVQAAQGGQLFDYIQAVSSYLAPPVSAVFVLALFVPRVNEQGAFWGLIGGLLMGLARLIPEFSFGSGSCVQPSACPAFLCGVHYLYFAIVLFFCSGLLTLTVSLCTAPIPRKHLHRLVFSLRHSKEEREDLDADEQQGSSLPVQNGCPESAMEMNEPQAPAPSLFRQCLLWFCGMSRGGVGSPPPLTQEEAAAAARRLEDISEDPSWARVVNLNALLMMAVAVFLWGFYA
Procedure: The following method was used for detecting inhibitory activity of the compounds of the invention against SGLT-1 and SGLT-2.
3×10^4 of FIP-in CHO cells transfected Mock and CHO cells expressing human SGLT-1/SGLT-2 gene were seeded into a 96-well cell culture plate; the cells were incubated for 12 hours, and then to each well was added 150 μL of Na-free buffer to wash the cells once; and then to each well were added 50 μL of Na buffer containing the compound at different concentrations and 0.5 μM [^14C]-AMG, and the plate was incubated in a incubator at 37° C. for 1 hour, the reaction was terminated by adding 150 μL of pre-cooled Na-free buffer; the cells were further washed with Na-free buffer 3 times and the residual liquid was removed; to each well was added 20 μL of pre-cooled NaOH ([…]), the plate was vibrated at 900 rpm for 5 min; and then to each well was added 80 μL of scintillation solution, the plate was vibrated at 600 rpm for 5 min; the plate was analyzed on liquid scintillation counter.

[3] = both sexes, beagle, dog, plasma, iv, i.v
[4] = both sexes, beagle, dog, plasma, po, p.o

CCOc1ccc(Cc2cc([C@]34OC[C@]([C@@H](C)O)(O3)[C@@H](O)[C@H](O)[C@H]4O)ccc2Cl)cc1 [Complex (IA), Complex (IA) of (1R,2S,3S,4R,5S)-5-(4-chloro-3-(4-ethoxybenzyl)phenyl)-1-((1R)-1-hydroxyethyl)-6,8-dioxabicyclo[3.2.1]octane-2,3,4-triol (I-n) and L-pyroglutamic acid] gave an AUC(0-t) [1, 3] of 617 ng·h/mL, a Cmax [1, 3] of 148 ng/mL and a half-life [1, 3] of 8.97 h. For the same molecule, the half-life ([1]; both sexes, beagle, dog, plasma, oral, p.o) was 8.88 h, the bioavailability ([1]; both sexes, beagle, dog, plasma, po, p.o, read-out: F (oral bioavailability)) was 97.5% and the AUC(0-t) [1, 4] was 602 ng·h/mL. For the same molecule, the Cmax [1, 4] was 66.2 ng/mL, the “F (oral bioavailability)” value ([1]; p.o) was 97.57% and the SGLT-2 inhibitory activity ([2]; CHO cells expressing human SGLT-2, [14C]-AMG) was “has SGLT-2 and SGLT-1 inhibitory activity”. The “inhibitory activity to SGLT-2 compared with SGLT-1” value ([2]; SGLT-2 versus SGLT-1) was “the inhibitory activity to SGLT-2 is much more stronger than that to SGLT-1”.
